Columns and labels:
[1] = molecular target: T1, PhdC (Mycolicibacterium fortuitum, UniProt A0A0N9XAG5); experiment: differential scanning fluorimetry (SUPR-DSF); Tm of apo to Tm of FMN-bound; format: binding; settings: 100 mM KPi, pH 7.5; ramp 1°C/min
T1 construct: gene XA26_16660; homodimer, site at dimer interface
T1 sequence (A0A0N9XAG5 2-155): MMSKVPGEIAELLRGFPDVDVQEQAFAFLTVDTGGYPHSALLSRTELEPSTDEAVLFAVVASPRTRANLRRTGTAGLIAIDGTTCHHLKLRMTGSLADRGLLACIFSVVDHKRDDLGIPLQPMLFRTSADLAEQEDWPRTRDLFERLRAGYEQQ

[2] = molecular target: T1, PhdC; experiment: isothermal titration calorimetry; format: binding

## Cc1cc2nc3c(=O)[nH]c(=O)nc-3n(C[C@H](O)[C@H](O)[C@H](O)COP(=O)(O)O)c2cc1C [FMN]
[1]
  Tm: 63.6 to 66.5 °C
[2]
  Kd: 17.8 ± 0.26 µM
